Test results as given in patent US11173160B2 (UNIVERSITY OF PITTSBURGH—OF THE COMMONWEALTH SYSTEM OF …, priority 2019, dated 2021).

What was measured:
[1] = human pharmacokinetics of TG02 as a single agent
[2] = cited from earlier work
MAPKAP-K2 = MAPKAP-K2 (Homo sapiens, UniProt P49137); details: cited from earlier work
Kit = Kit (Homo sapiens, UniProt P10721); details: cited from earlier work
MKK6 = MKK6 (Homo sapiens, UniProt P52564); details: cited from earlier work
Lck = Lck (Homo sapiens, UniProt P06239); details: Source Millipore; 10-point titration in duplicates, done once; cited from earlier work
[3] = tested on: MYC in DIPG-IV and SF8628 cells; test: Western blot of phospho MYC S62 and total MYC; format: cell-based, human; details: TG02 100 nM
Method: FIGS. 6A-6H provide that ERK5 inhibition reduced MYC protein stability. (6A) Schematic of identifying differentially expressed phospho-proteins in DIPG-IV cells expressing ERK5 and ERK5 knockdown. (6B) Ratio of phospho:total protein changes in ERK5 knockdown versus ERK5 control DIPG-IV cells. […] (6D) Western blot of MYC in DIPG-IV cells treated with Dox and MG132 (10 uM). (6E) Immunoprecipitation of MYC and ERK5 followed by western blot of ERK5 and MYC. […] (6G) Western blot of DIPG cells re-transfected with constitutively active MYC S62D in presence of ERK5 loss. (6H) Cell doubling times of control and ERK5 knockdown DIPG cells and the effect of MYC S62D rescue. SF8628 cells (left) and DIPG-IV cells (right).
Cell pellets were lysed in PLC lysis buffer containing protease and phosphatase inhibitors (Roche Inc.). Protein lysates were quantified using the bicinchoninic acid (BCA) assay (Pierce Chemical Co., Rockford, Ill.). 30 μg of total protein lysate was loaded in 10% SDS-PAGE gels and electrophoresed. Proteins were transferred to PVDF membranes using a semi-dry transfer apparatus (Bio-Rad). […] Binding was detected using Chemiluminescence Reagent Plus (PerkinElmer Inc., MA, USA).

[4] = tested on: normal astrocytes or neural stem cells; test: viability of normal cells treated with TG02; format: cell-based, human; details: nM ranges
Source text: Brain gliomas express high levels of ERK5 (FIG. 29).

Nek2 = Nek2 (Homo sapiens, UniProt P51955); details: cited from earlier work
IKK-β = IKK-β (Homo sapiens, UniProt O14920); details: cited from earlier work
EGFR = EGFR (Homo sapiens, UniProt P00533); details: cited from earlier work
[5] = tested on: DIPG-13p and DIPG-IV cells; test: cell viability with TG02 and/or RT; format: cell-based, human
PDK1 = PDK1 (Homo sapiens, UniProt O15530); details: cited from earlier work
ASK1 = ASK1 (Homo sapiens, UniProt Q99683); details: cited from earlier work
Sequence of ASK1 (Q99683 whole entry): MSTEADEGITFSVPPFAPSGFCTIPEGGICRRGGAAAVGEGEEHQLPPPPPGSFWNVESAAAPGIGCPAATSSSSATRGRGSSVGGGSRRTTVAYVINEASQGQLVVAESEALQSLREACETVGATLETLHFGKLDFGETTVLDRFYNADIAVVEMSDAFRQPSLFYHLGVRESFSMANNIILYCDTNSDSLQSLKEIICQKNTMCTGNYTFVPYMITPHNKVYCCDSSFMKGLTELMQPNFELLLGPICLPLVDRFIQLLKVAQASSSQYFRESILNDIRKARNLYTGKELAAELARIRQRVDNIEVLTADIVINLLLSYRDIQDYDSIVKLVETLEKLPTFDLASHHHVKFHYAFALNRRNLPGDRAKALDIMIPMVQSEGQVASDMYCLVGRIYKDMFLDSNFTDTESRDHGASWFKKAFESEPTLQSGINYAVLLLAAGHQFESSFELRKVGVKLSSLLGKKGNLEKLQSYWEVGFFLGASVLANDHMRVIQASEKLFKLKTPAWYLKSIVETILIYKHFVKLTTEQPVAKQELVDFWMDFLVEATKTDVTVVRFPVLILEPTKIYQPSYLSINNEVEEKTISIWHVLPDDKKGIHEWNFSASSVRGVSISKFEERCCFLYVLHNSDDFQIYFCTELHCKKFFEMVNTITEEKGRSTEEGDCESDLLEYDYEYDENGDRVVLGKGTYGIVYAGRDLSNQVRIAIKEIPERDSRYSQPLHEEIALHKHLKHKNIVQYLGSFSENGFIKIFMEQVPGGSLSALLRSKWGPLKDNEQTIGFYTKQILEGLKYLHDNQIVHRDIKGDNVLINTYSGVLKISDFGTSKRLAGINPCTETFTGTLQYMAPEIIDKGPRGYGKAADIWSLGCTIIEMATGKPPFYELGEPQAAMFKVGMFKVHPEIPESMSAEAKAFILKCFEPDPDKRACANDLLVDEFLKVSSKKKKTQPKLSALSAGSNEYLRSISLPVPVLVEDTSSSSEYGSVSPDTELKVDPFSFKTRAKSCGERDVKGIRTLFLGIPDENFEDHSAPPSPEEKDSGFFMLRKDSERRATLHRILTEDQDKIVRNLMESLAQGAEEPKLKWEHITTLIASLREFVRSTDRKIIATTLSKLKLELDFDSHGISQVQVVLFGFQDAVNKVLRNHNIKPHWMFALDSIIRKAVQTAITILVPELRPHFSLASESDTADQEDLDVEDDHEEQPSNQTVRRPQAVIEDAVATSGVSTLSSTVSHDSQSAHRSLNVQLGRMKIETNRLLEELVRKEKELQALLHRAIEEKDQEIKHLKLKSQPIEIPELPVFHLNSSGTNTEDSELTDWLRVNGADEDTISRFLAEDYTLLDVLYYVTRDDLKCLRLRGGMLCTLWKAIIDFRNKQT

Sequence of IKK-β (O14920 whole entry): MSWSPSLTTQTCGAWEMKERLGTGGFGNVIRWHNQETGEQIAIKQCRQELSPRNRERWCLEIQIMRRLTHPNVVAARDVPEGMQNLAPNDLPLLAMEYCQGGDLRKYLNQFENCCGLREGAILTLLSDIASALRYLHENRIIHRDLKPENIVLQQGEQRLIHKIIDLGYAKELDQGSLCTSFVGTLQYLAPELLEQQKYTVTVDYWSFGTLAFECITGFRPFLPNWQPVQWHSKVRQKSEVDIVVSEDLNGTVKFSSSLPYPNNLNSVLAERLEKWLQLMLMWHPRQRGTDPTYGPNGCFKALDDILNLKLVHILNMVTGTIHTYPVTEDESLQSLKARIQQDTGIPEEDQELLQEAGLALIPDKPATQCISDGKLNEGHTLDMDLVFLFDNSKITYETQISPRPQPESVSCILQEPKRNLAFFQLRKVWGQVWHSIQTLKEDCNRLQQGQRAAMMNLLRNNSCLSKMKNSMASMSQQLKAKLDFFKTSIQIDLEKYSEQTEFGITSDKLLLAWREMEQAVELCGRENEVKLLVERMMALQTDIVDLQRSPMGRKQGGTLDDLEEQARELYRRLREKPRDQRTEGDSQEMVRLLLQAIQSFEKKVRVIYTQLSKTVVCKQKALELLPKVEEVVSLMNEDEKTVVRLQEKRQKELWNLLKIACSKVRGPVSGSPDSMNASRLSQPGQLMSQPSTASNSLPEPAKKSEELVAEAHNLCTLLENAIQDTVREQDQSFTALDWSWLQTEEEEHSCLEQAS
Sequence of MKK6 (P52564 whole entry): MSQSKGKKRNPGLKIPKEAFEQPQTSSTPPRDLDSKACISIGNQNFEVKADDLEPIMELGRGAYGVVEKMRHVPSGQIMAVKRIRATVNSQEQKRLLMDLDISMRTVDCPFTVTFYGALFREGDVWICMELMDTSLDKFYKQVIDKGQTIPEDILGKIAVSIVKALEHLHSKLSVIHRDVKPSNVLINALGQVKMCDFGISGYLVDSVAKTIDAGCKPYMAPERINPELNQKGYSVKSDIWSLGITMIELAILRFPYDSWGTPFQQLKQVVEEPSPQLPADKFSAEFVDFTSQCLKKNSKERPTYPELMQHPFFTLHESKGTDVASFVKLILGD
Sequence of Lck (P06239 whole entry): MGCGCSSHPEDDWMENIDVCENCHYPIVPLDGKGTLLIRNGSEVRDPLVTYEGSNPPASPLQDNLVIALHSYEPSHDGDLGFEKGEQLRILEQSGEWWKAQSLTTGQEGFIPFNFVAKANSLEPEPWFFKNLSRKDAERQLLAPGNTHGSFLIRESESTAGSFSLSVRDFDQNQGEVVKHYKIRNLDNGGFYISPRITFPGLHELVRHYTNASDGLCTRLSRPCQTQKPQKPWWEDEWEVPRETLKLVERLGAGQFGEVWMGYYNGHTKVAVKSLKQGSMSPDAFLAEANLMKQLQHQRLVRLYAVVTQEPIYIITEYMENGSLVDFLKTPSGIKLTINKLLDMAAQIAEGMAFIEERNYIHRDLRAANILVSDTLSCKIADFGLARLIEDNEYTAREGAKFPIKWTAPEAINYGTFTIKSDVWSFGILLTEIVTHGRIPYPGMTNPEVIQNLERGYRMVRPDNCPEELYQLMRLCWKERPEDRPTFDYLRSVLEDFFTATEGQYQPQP
Sequence of Nek2 (P51955 whole entry): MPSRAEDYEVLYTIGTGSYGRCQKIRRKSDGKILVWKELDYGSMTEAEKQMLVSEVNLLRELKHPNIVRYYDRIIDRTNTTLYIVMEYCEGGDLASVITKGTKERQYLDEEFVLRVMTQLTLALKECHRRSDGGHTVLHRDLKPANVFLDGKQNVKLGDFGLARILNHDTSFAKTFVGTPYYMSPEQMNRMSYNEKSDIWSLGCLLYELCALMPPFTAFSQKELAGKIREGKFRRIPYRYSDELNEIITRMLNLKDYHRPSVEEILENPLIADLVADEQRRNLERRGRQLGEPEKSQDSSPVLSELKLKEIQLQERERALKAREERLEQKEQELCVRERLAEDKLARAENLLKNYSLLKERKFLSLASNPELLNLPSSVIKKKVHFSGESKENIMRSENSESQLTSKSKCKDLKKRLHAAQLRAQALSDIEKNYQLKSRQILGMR
Sequence of PDK1 (O15530 whole entry): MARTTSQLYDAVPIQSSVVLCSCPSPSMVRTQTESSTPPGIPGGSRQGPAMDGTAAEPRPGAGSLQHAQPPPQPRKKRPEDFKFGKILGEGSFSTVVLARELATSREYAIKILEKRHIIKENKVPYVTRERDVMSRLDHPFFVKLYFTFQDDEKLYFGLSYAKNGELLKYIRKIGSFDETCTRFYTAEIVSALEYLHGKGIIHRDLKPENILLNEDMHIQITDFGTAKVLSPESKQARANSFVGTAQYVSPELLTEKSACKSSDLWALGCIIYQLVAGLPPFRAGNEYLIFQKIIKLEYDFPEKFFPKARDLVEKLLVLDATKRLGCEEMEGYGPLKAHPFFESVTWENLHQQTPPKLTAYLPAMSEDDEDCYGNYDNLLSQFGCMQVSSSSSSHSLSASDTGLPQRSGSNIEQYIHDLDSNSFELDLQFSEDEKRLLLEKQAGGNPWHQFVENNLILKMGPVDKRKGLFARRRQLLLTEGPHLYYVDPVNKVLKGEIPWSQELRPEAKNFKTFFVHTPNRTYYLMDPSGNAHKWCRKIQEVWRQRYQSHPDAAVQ
Sequence of Kit (P10721 26-976): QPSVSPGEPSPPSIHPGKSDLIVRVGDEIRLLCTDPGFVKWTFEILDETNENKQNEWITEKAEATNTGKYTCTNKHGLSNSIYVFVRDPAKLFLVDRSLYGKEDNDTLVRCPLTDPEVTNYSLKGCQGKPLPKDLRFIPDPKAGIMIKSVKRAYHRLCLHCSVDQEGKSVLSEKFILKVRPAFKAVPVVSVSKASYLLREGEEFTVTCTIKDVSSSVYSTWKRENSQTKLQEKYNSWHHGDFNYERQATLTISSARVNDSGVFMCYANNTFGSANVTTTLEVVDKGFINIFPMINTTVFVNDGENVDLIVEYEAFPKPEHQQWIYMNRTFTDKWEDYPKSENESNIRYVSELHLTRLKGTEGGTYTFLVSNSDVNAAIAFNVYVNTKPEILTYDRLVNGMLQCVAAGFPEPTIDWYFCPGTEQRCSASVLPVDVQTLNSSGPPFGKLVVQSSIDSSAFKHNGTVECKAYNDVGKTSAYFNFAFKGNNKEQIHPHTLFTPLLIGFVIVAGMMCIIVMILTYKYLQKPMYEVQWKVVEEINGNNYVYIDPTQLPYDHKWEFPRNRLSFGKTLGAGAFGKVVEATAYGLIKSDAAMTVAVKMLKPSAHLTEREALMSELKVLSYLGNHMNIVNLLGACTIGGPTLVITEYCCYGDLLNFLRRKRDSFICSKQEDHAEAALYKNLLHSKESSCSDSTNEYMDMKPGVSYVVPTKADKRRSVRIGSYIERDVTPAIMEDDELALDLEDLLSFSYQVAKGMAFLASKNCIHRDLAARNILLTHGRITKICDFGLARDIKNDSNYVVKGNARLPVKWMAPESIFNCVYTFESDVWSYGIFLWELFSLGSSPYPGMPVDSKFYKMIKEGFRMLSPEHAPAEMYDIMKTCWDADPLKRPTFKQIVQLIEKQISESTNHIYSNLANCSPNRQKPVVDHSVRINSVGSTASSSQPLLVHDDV

## CN1C/C=C/CCOc2cccc(c2)-c2ccnc(n2)Nc2cccc(c2)C1 [TG02, (16E)-14-methyl-20-oxa-5,7,14,27-tetraazatetracyclo[19.3.1.12,6.18,12]heptacosa-1(25),2(27),3,5,8(26),9,11,16,21,23-decaene]
[1]; adults, single dose of 200 mg, equivalent
  peak concentration in plasma: 11,000 nM
[1]; in vivo
  Cmax in adults over in vitro IC50 in patient-derived DIPG cell lines: ~2 logs
[2]; human, in vivo
  most clinically significant toxicities, TG02 combined with RT: grade 2 nausea and vomiting and grade 3 neutropenia
[2]; twice a week in older adults
  significant drug-related toxicities, single agent: increased liver function tests and grade 3 neutropenia
[2]; twice a week in older adults, probably
  MTD as single-agent: ~150 mg per dose
MAPKAP-K2
  inhibition at 100 nm: less than 50%
Kit
  inhibition at 100 nm: less than 50%
MKK6
  inhibition at 100 nm: less than 50%
Lck
  IC50: 11 nM
[3]
  phospho MYC (S62) and total MYC: reduced phospho and total MYC
[4]
  toxicity to normal cells: not toxic
Nek2
  inhibition at 100 nm: less than 50%
IKK-β
  inhibition at 100 nm: less than 50%
EGFR
  inhibition at 100 nm: less than 50%
[5]; 50 nM TG02 and 10 Gy of RT (2-Gy fractions over 5 days), Day 5, compared to RT or TG02 only
  cell viability, RT and TG02: statistically significant reduction in cell viability
[5]; 50 nM of TG02, Day 5, vs DMSO control
  cell viability, TG02 alone: significantly reduced cell viability
PDK1
  inhibition at 100 nm: less than 50%
ASK1
  inhibition at 100 nm: less than 50%
